In brackets after ≈: the same amount, converted by molar mass.
Key:
AcpS enzyme = AcpS enzyme (Escherichia coli, UniProt P24224); test: Measurement of AcpS inhibition ([3H]acetyl-CoA incorporation into apo-ACP); type: biochemical; conditions: % activity vs blank-subtracted counts; for remaining activity at 500 µM / % AcpS activity @ 500 uM: test compound 500 uM; for activity at 50 µM / % AcpS activity at 50 uM: test compound 50 uM
Method: [^3H]Acetyl-CoA was mixed as 1 volume of Perkin Elmer NET290 radiolabeled stock (e.g. 0.1 mCi/ml, 3.7 Ci/mmol in Na-acetate, pH 4.5-5.0=27 μM) with 1.2 volumes of 1 mM unlabelled acetyl-CoA (Sigma). Trichloroacetic acid was prepared as a 10% w/v solution. Bovine serum albumin was prepared as a 25 mg/ml solution in water. DTT was prepared as a 50 mM solution in water.
• 1. A standard reaction contained the following in a total volume of 10 μl:
• 2. Tubes were incubated at RT. [^3H]acetyl-CoA was added last to start the reaction. To stop the reaction, 2 μl was removed to a 1.5-ml microfuge tube containing 800 μl cold 10% TCA. Up to four time points were collected for each reaction, e.g. at 5 min, 10 min, 30 min, and 60 min. • 3. 20 μl of 25 mg/ml BSA was added to each tube, mixed and incubated on ice for 10 min, then centrifuged at 12,000 g for 5 min to form a pellet. Supernatant was removed using P1000. • 4. Each pellet was washed twice with 800 μl of cold 10% TCA each time, then centrifuged at 12,000 g for 5 min after each wash. The supernatant was discarded. Each pellet was resuspended in 50 μl of formic acid. The suspension was transferred to a scintillation vial and radioactivity was measured in 2 ml of liquid scintillation cocktail.
The random (stochastic) error in scintillation counting is proportional to the square root of the counts (not dpm) accumulated in the counting period; i.e. 10% for 100, 3.3% for 1,000, 1% for 10,000, etc. Provided radioactive counts (dpm) are in the thousands, the assay provides useful data. Results are reported in terms of % activity with respect to the blank-subtracted counts for working substrate. A % activity of less than about 40% is indicative of AcpS enzyme inhibition by the test compound at that concentration.

[1] = system: Methicillin-Resistant Staph. aureus (MRSA); test: MIC, NCCLS M7-A6 broth microdilution, MRSA; type: cell-based; conditions: 16 to 20 h, 35 degrees Celsius; for MIC: Staphylococcus aureus, MRSA
Method: (§1) Susceptibilities to the compounds were determined using the National Committee for Clinical Laboratory Standards (NCCLS) M7-A6 broth microdilution method. Cation-adjusted Mueller-Hinton broth (Ca^2+, 25 μg/mL; Mg^2+, 12.5 μg/mL) microdilution panels were prepared to contain antimicrobial doubling dilution concentrations of an appropriate range. DMSO (dimethylsulfoxide) controls were incorporated into the panel to mimic the quantity of DMSO used in dissolving some of the compounds at the higher concentrations. Each final panel well volume was 100 μL with a bacterial inoculum of 5×10^5 CFU (colony forming units)/mL of the relevant bacterium. Panels were read following 16 to 20 h of incubation at 35 degrees Celsius in ambient air. The MIC (minimum inhibitory concentration) was defined as the lowest concentration of antimicrobial inhibiting visible growth.

E. coli D22 = test: MIC, NCCLS M7-A6 broth microdilution, E. coli D22; type: cell-based; conditions: 35 degrees Celsius; for MIC: Escherichia coli, D22, 16 to 20 h; for MIC E coli D22: 16 to 20 h
Method: as §1

Sequence of AcpS enzyme (P24224 whole entry): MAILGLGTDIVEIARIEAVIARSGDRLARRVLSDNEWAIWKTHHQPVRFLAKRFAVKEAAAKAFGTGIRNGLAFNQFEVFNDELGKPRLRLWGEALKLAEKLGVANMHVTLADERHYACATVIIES

Row | SMILES | remaining activity at 500 µM (AcpS enzyme) | MIC [1] | MIC (E. coli D22) | activity at 50 µM (AcpS enzyme) | % AcpS activity @ 500 uM (AcpS enzyme) | MIC MRSA [1] | MIC E coli D22 (E. coli D22) | % AcpS activity at 50 uM (AcpS enzyme)
1 | Cc1ccc(-c2ccc(-c3ccc(C)c4ccccc34)c(-c3nnn[nH]3)c2)c2ccccc12 [DNM0446, 5-(2,5-Bis(4-methylnaphthalen-1-yl)phenyl)-1H-tetrazole] | 25.4% | 4 µM (≈ 1.71 µg/mL) | > 125 µM | – | – | – | – | –
2 | Cc1cc(Cl)ccc1-c1ccc(-c2ccc(Cl)cc2C)c(-c2nnn[nH]2)c1 [DNM0447, 5-(2,5-Bis(4-chloro-2-methylphenyl)phenyl)-1H-tetrazole] | 0.47% | 15 µM (≈ 5.93 µg/mL) | > 125 µM | 32.6% | – | – | – | –
3 | c1ccc(Oc2ccc(-c3ccc(-c4ccc(Oc5ccccc5)cc4)c(-c4nn[nH]n4)c3)cc2)cc1 [DNM0453] | – | – | – | – | 23.76% | 8 µM (≈ 3.86 µg/mL) | >125 µM | –
4 | Cc1cc(Cl)ccc1-c1cc(-c2nn[nH]n2)cc(-c2ccc(Cl)cc2C)c1 [DNM0457] | – | – | – | – | 0% | 8 µM (≈ 3.16 µg/mL) | 60 µM (≈ 23.7 µg/mL) | 1.56%
5 | Cc1ccc(-c2cc(-c3nn[nH]n3)cc(-c3ccc(C)c4ccccc34)c2)c2ccccc12 [DNM0461, 5-(3,5-Bis(4-methylnaphthalen-1-yl)phenyl)-2H-tetrazole] | 0.85% | 1 µM (≈ 0.427 µg/mL) | > 125 µM | 13.4% | – | – | – | –
6 | c1ccc(-c2ccccc2-c2cc(-c3nn[nH]n3)cc(-c3ccccc3-c3ccccc3)c2)cc1 [DNM0464] | – | – | – | – | 0.28% | 1 µM (≈ 0.451 µg/mL) | >125 µM | 9.03%
7 | Clc1ccc(-c2cc(-c3ccc(Cl)cc3)cc(-c3nn[nH]n3)c2)cc1 [DNM0470, 5-(3,5-Bis(4-chlorophenyl)phenyl)-2H-tetrazole] | 27.7% | 4 µM (≈ 1.47 µg/mL) | 125 µM (≈ 45.9 µg/mL) | – | – | – | – | –
8 | Clc1ccc(-c2cc(-c3nn[nH]n3)cc(-c3ccccc3-c3ccccc3)c2)cc1 [DNM0479] | – | – | – | – | 0.1% | 2 µM (≈ 0.818 µg/mL) | >125 µM | 12.79%
9 | Cc1ccc(-c2cc(-c3ccc(Cl)cc3)cc(-c3nnn[nH]3)c2)c2ccccc12 [DNM0480, 5-(4′-Chloro-5-(4-methylnaphthalen-1-yl)biphenyl-3-yl)-1H-tetrazole] | 2.04% | 4 µM (≈ 1.59 µg/mL) | 125 µM (≈ 49.6 µg/mL) | 7.35% | – | – | – | –
10 | Cc1ccc(-c2cc(-c3nnn[nH]3)sc2-c2ccc(C)c3ccccc23)c2ccccc12 [DNM0486, 5-(4,5-Bis(4-methylnaphthalen-1-yl)thiophen-2-yl)-1H-tetrazole] | 0.16% | 2 µM (≈ 0.865 µg/mL) | > 125 µM | 0.82% | – | – | – | –
11 | c1ccc(-c2ccccc2-c2cc(-c3nnn[nH]3)sc2-c2ccccc2-c2ccccc2)cc1 [DNM0489, 5-(4,5-Di(biphenyl-2-yl)thiophen-2-yl)-1H-tetrazole] | 0% | 2 µM (≈ 0.913 µg/mL) | > 125 µM | 17.9% | – | – | – | –
12 | Clc1cccc(-c2ccccc2-c2cc(-c3nn[nH]n3)cc(-c3ccccc3-c3cccc(Cl)c3)c2)c1 [DNM0493] | – | – | – | – | 2.7% | 4 µM (≈ 2.08 µg/mL) | >125 µM | 25.28%
13 | Cc1ccc(-c2cc(-c3nnn[nH]3)sc2-c2ccc(C)c(Cl)c2)cc1Cl [DNM0504, 5-(4,5-Bis(3-chloro-4-methylphenyl)thiophen-2-yl)-1H-tetrazole] | 0.16% | 125 µM (≈ 50.2 µg/mL) | 125 µM (≈ 50.2 µg/mL) | 7.33% | – | – | – | –
14 | Cc1ccc(-c2cc(-c3nnn[nH]3)sc2-c2ccc(C)c(C)c2)cc1C [DNM0509, 5-(4,5-Bis(3,4-dimethylphenyl)thiophen-2-yl)-1H-tetrazole] | 0.2% | 15 µM (≈ 5.41 µg/mL) | > 125 µM | 31.1% | – | – | – | –
15 | CN(C)c1ccc(Cl)cc1-c1cc(-c2nn[nH]n2)cc(-c2cc(Cl)ccc2N(C)C)c1 [DNM0510] | – | – | – | – | 0.12% | 4 µM (≈ 1.81 µg/mL) | >125 µM | 8.4%
16 | Cc1ccc(-c2cc(-c3nn[nH]n3)cc(-c3ccc(C)cc3Br)c2)c(Br)c1 [DNM0511] | – | – | – | – | 0% | 8 µM (≈ 3.87 µg/mL) | >125 µM | 14.36%
17 | CC(C)c1ccc(-c2cc(-c3nnn[nH]3)sc2-c2ccc(C(C)C)cc2)cc1 [DNM0512, 5-(4,5-Bis(4-isopropylphenyl)thiophen-2-yl)-1H-tetrazole] | 0.7% | 8 µM (≈ 3.11 µg/mL) | > 125 µM | 37.3% | – | – | – | –
18 | Cc1ccc(-c2cc(-c3nn[nH]n3)cc(-c3cc(Cl)ccc3N(C)C)c2)c2ccccc12 [DNM0514] | – | – | – | – | 0.14% | 4 µM (≈ 1.76 µg/mL) | >125 µM | 5.73%
19 | Cc1ccc(-c2cc(-c3nn[nH]n3)cc(-c3ccc(C)cc3-c3ccccc3)c2)c(-c2ccccc2)c1 [DNM0516] | – | – | – | – | 5% | 2 µM (≈ 0.957 µg/mL) | >125 µM | 32.01%
20 | Cc1ccc(-c2cc(-c3nn[nH]n3)cc(-c3ccc(C)cc3-c3cccc(Cl)c3)c2)c(-c2cccc(Cl)c2)c1 [DNM0520] | – | – | – | – | 20.86% | 2 µM (≈ 1.09 µg/mL) | >125 µM | –
21 | Cc1ccccc1-c1cc(-c2nn[nH]n2)cc(-c2ccccc2C)c1 [DNM0529] | – | – | – | – | 0.16% | 30 µM (≈ 9.79 µg/mL) | >125 µM | 91.56%
22 | Cc1ccccc1-c1cc(-c2nnn[nH]2)sc1-c1ccccc1C [DNM0531, 5-(4,5-Bis(2-methylphenyl)thiophen-2-yl)-1H-tetrazole] | 4.38% | 60 µM (≈ 19.9 µg/mL) | > 125 µM | 96.8% | – | – | – | –
23 | CC(C)c1ccccc1-c1cc(-c2nn[nH]n2)cc(-c2ccccc2C(C)C)c1 [DNM0532] | – | – | – | – | 0.22% | 60 µM (≈ 23 µg/mL) | >125 µM | 30.66%
24 | CC(C)c1ccccc1-c1cc(-c2nnn[nH]2)sc1-c1ccccc1C(C)C [DNM0534, 5-(4,5-Bis(2-isopropylphenyl)thiophen-2-yl)-1H-tetrazole] | 0% | 8 µM (≈ 3.11 µg/mL) | > 125 µM | 34% | – | – | – | –
25 | c1ccc(-c2cc(-c3nnn[nH]3)sc2-c2ccccc2)cc1 [DNM0535] | – | – | – | – | 3.48% | 125 µM (≈ 38 µg/mL) | >125 µM | 92.62%
26 | c1ccc(Oc2ccccc2-c2cc(-c3nnn[nH]3)sc2-c2ccccc2Oc2ccccc2)cc1 [DNM0536, 5-(4,5-Bis(2-phenoxyphenyl)thiophen-2-yl)-1H-tetrazole] | 0.2% | 8 µM (≈ 3.91 µg/mL) | 125 µM (≈ 61.1 µg/mL) | 8.25% | – | – | – | –
27 | Clc1ccccc1-c1cc(-c2nnn[nH]2)sc1-c1ccccc1Cl [DNM0538, 5-(4,5-Bis(2-chlorophenyl)thiophen-2-yl)-1H-tetrazole] | 0.58% | 30 µM (≈ 11.2 µg/mL) | > 125 µM | 82.2% | – | – | – | –
28 | Fc1ccc(-c2cc(-c3nn[nH]n3)cc(-c3ccc(F)c4ccccc34)c2)c2ccccc12 [DNM0539, 5-(3,5-Bis(4-fluoronaphthalen-1-yl)phenyl)-2H-tetrazole] | 39.4% | 8 µM (≈ 3.48 µg/mL) | > 125 µM | – | – | – | – | –
29 | Fc1ccc(-c2cc(-c3nnn[nH]3)sc2Cc2ccc(Cl)cc2)c2ccccc12 [DNM0587, 5-(5-(4-Chlorobenzyl)-4-(4-fluoronaphthalen-1-yl)thiophen-2-yl)-1H-tetrazole] | 0% | 8 µM (≈ 3.37 µg/mL) | – | 2.13% | – | – | – | –
30 | Clc1ccc(Cc2sc(-c3nnn[nH]3)cc2-c2ccccc2-c2ccccc2)cc1 [DNM0588, 5-(4-(Biphenyl-2-yl)-5-(4-chlorobenzyl)thiophen-2-yl)-1H-tetrazole] | 0% | 8 µM (≈ 3.43 µg/mL) | – | 2.67% | – | – | – | –
